Experimental data as given in PubChem BioAssay (NCI).
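Compound exposure: 48 hours, 5 concentrations, 96-well plates. GI50: concentration for 50% inhibition of growth. TGI: concentration producing complete growth inhibition.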

Assays:
Assay in all cases: growth of human tumour cells (NCI), 48 h
MOLT-4 leukemia = system: MOLT-4 leukemia
OVCAR-8 ovarian = system: OVCAR-8 ovarian
SN12C renal = system: SN12C renal
K-562 leukemia = system: K-562 leukemia
BT-549 breast = system: BT-549 breast
A549 NSCLC = system: A549 NSCLC
OVCAR-5 ovarian = system: OVCAR-5 ovarian
UACC-62 melanoma = system: UACC-62 melanoma
HCC-2998 colon = system: HCC-2998 colon
TK-10 renal = system: TK-10 renal
HL-60(TB) leukemia = system: HL-60(TB) leukemia
HCT-116 colon = system: HCT-116 colon
OVCAR-4 ovarian = system: OVCAR-4 ovarian
KM12 colon = system: KM12 colon
EKVX NSCLC = system: EKVX NSCLC
NCI/ADR-RES ovarian = system: NCI/ADR-RES ovarian
MCF7 breast = system: MCF7 breast
SF-539 CNS = system: SF-539 CNS
CAKI-1 renal = system: CAKI-1 renal
UO-31 renal = system: UO-31 renal
HT29 colon = system: HT29 colon
A498 renal = system: A498 renal
SK-OV-3 ovarian = system: SK-OV-3 ovarian
HS 578T breast = system: HS 578T breast
SK-MEL-5 melanoma = system: SK-MEL-5 melanoma
NCI-H23 lung = system: NCI-H23 lung
M14 melanoma = system: M14 melanoma
MDA-MB-468 breast = system: MDA-MB-468 breast
SF-268 CNS = system: SF-268 CNS
HOP-92 NSCLC = system: HOP-92 NSCLC
SW-620 colon = system: SW-620 colon
RPMI-8226 leukemia = system: RPMI-8226 leukemia
U251 CNS = system: U251 CNS
SF-295 CNS = system: SF-295 CNS
IGROV1 ovarian = system: IGROV1 ovarian
786-0 renal = system: 786-0 renal
SNB-19 CNS = system: SNB-19 CNS
SK-MEL-2 melanoma = system: SK-MEL-2 melanoma
COLO 205 colon = system: COLO 205 colon
CCRF-CEM leukemia = system: CCRF-CEM leukemia
DU-145 prostate = system: DU-145 prostate
UACC-257 melanoma = system: UACC-257 melanoma
OVCAR-3 ovarian = system: OVCAR-3 ovarian
PC-3 prostate = system: PC-3 prostate
NCI-H460 lung = system: NCI-H460 lung
NCI-H522 lung = system: NCI-H522 lung
NCI-H226 lung = system: NCI-H226 lung
HCT-15 colon = system: HCT-15 colon
SR leukemia = system: SR leukemia
SNB-75 CNS = system: SNB-75 CNS
SK-MEL-28 melanoma = system: SK-MEL-28 melanoma
T-47D breast = system: T-47D breast
MDA-MB-435 = system: MDA-MB-435
RXF 393 renal = system: RXF 393 renal
MALME-3M melanoma = system: MALME-3M melanoma
HOP-62 NSCLC = system: HOP-62 NSCLC
ACHN renal = system: ACHN renal
LOX IMVI melanoma = system: LOX IMVI melanoma
MDA-MB-231 breast = system: MDA-MB-231 breast

O=C(COc1ccc(NC(=O)Nc2ccc(Cl)c(Cl)c2)cc1)N=Nc1c(O)[nH]c2ccc(Br)cc12
GI50 (MOLT-4 leukemia): 629 nM
TGI (MOLT-4 leukemia): 2690 nM
GI50 (OVCAR-8 ovarian): 2340 nM
TGI (OVCAR-8 ovarian): 5420 nM
GI50 (SN12C renal): 1820 nM
TGI (SN12C renal): 3450 nM
GI50 (K-562 leukemia): 1260 nM
TGI (K-562 leukemia): 6470 nM
GI50 (BT-549 breast): 28.8 nM
TGI (BT-549 breast): 2230 nM
GI50 (A549 NSCLC): 2060 nM
TGI (A549 NSCLC): 5000 nM
GI50 (OVCAR-5 ovarian): 1820 nM
TGI (OVCAR-5 ovarian): 3890 nM
GI50 (UACC-62 melanoma): 1850 nM
TGI (UACC-62 melanoma): 3770 nM
GI50 (HCC-2998 colon): 1820 nM
TGI (HCC-2998 colon): 3890 nM
GI50 (TK-10 renal): 2460 nM
TGI (TK-10 renal): 7790 nM
GI50 (HL-60(TB) leukemia): 2020 nM
TGI (HL-60(TB) leukemia): 4660 nM
GI50 (HCT-116 colon): 166 nM
TGI (HCT-116 colon): 369 nM
GI50 (OVCAR-4 ovarian): 1900 nM
TGI (OVCAR-4 ovarian): 4100 nM
GI50 (KM12 colon): 1950 nM
TGI (KM12 colon): 4120 nM
GI50 (EKVX NSCLC): 2370 nM
TGI (EKVX NSCLC): 7060 nM
GI50 (NCI/ADR-RES ovarian): > 100000 nM
TGI (NCI/ADR-RES ovarian): > 100000 nM
GI50 (MCF7 breast): 2010 nM
TGI (MCF7 breast): 4710 nM
GI50 (SF-539 CNS): 1660 nM
TGI (SF-539 CNS): 3120 nM
GI50 (CAKI-1 renal): 2050 nM
TGI (CAKI-1 renal): 4300 nM
GI50 (UO-31 renal): 11500 nM
TGI (UO-31 renal): 45900 nM
GI50 (HT29 colon): 1860 nM
TGI (HT29 colon): 3780 nM
GI50 (A498 renal): 1560 nM
TGI (A498 renal): 3790 nM
GI50 (SK-OV-3 ovarian): 2080 nM
TGI (SK-OV-3 ovarian): 4290 nM
GI50 (HS 578T breast): 2250 nM
TGI (HS 578T breast): 6710 nM
GI50 (SK-MEL-5 melanoma): 1700 nM
TGI (SK-MEL-5 melanoma): 3090 nM
GI50 (NCI-H23 lung): 1990 nM
TGI (NCI-H23 lung): 3990 nM
GI50 (M14 melanoma): 231 nM
TGI (M14 melanoma): 634 nM
GI50 (MDA-MB-468 breast): 1750 nM
TGI (MDA-MB-468 breast): 3460 nM
GI50 (SF-268 CNS): 1630 nM
TGI (SF-268 CNS): 5150 nM
GI50 (HOP-92 NSCLC): 1930 nM
TGI (HOP-92 NSCLC): 4450 nM
GI50 (SW-620 colon): 1460 nM
TGI (SW-620 colon): 3060 nM
GI50 (RPMI-8226 leukemia): 2190 nM
TGI (RPMI-8226 leukemia): 6370 nM
GI50 (U251 CNS): 1710 nM
TGI (U251 CNS): 3390 nM
GI50 (SF-295 CNS): 1630 nM
TGI (SF-295 CNS): 3200 nM
GI50 (IGROV1 ovarian): 1880 nM
TGI (IGROV1 ovarian): 3920 nM
TGI (786-0 renal): 920 nM
GI50 (SNB-19 CNS): 2680 nM
TGI (SNB-19 CNS): 8420 nM
GI50 (SK-MEL-2 melanoma): 1970 nM
TGI (SK-MEL-2 melanoma): 4270 nM
GI50 (COLO 205 colon): 1830 nM
TGI (COLO 205 colon): 3310 nM
GI50 (CCRF-CEM leukemia): 812 nM
TGI (CCRF-CEM leukemia): 6130 nM
GI50 (DU-145 prostate): 3070 nM
TGI (DU-145 prostate): 9520 nM
GI50 (UACC-257 melanoma): 1790 nM
TGI (UACC-257 melanoma): 3560 nM
GI50 (OVCAR-3 ovarian): 1080 nM
TGI (OVCAR-3 ovarian): 3130 nM
GI50 (PC-3 prostate): 1150 nM
TGI (PC-3 prostate): 3440 nM
GI50 (NCI-H460 lung): 1600 nM
TGI (NCI-H460 lung): 3540 nM
GI50 (NCI-H522 lung): 1810 nM
TGI (NCI-H522 lung): 3620 nM
GI50 (NCI-H226 lung): 1980 nM
TGI (NCI-H226 lung): 3860 nM
GI50 (HCT-15 colon): 6130 nM
TGI (HCT-15 colon): 45500 nM
GI50 (SR leukemia): 2550 nM
TGI (SR leukemia): 7980 nM
GI50 (SNB-75 CNS): 1330 nM
TGI (SNB-75 CNS): 2840 nM
GI50 (SK-MEL-28 melanoma): 1830 nM
TGI (SK-MEL-28 melanoma): 3430 nM
GI50 (T-47D breast): 1960 nM
TGI (T-47D breast): 4570 nM
GI50 (MDA-MB-435): 1550 nM
TGI (MDA-MB-435): 3250 nM
GI50 (RXF 393 renal): 1520 nM
TGI (RXF 393 renal): 3040 nM
GI50 (MALME-3M melanoma): 1640 nM
TGI (MALME-3M melanoma): 3030 nM
GI50 (HOP-62 NSCLC): 2030 nM
TGI (HOP-62 NSCLC): 3950 nM
GI50 (ACHN renal): 2940 nM
TGI (ACHN renal): 9120 nM
GI50 (LOX IMVI melanoma): 1090 nM
TGI (LOX IMVI melanoma): 2300 nM
GI50 (MDA-MB-231 breast): 1810 nM
TGI (MDA-MB-231 breast): 3350 nM
